Laboratory results: patent US12624024B2, “EP2 antagonist compounds” (Reservoir Neuroscience, Inc., priority 2021, dated 2026)
pIC50: −log10 of the molar value.

Target: T1, EP2 receptor (Homo sapiens, UniProt P43116)
T1 construct: expressed in transfected cells; host or cells: CHO-K1 cells (ATCC), transient transfection with FuGENE 6
Assay: EP2 Potency Assay (cAMP TR-FRET, CHO-K1 cells transfected with EP2 receptor, PGE2 at EC80)
Format: cell-based
Details: CHO-K1 cells expressing EP2, prostaglandin E2 at EC80, read-out: EP2 Potency (IC50 category)
Experimental: Compound potency was measured using a cAMP TR-FRET assay.
After 6 hours incubation, the cell media was replaced with F12 medium supplemented with 10% FBS and 100 U/ml Pen-Strep. 24 hours after transfection, cells were harvested and seeded at a density of 3000 cells/well in a 384 well plate to perform the cAMP assay, using the LANCE Ultra cAMP assay kit (PerkinElmer).
Plates were then centrifuged at 1000 rpm for 1 min, agitated at 600 rpm at R.T. for 2 min, and incubated at 25° C. for 5 min. The reference agonist, prostaglandin E2 (MCE), was added to each well at the appropriate concentration to reach its EC80 value. Plates were then centrifuged at 1000 rpm for 1 min, agitated at 600 rpm at R.T. for 2 min, and incubated at 25° C. for 30 min.
A dose-response curve was prepared by plotting percent inhibition for each compound concentration, and then IC50 was calculated by fitting a curve to the plotted values and extrapolating the IC50 concentration.

T1 sequence (P43116 whole entry): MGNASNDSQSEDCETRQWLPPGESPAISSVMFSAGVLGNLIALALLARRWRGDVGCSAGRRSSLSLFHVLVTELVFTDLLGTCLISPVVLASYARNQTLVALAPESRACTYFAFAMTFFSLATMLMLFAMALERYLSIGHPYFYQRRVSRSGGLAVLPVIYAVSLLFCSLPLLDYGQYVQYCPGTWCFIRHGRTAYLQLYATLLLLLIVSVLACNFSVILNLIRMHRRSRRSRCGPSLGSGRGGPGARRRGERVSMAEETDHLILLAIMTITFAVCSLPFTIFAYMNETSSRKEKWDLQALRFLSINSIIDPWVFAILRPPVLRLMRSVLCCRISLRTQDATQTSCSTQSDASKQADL

With `O=c1ncc(CN2CCOc3c(Cl)cc(-n4ccc5cncnc54)cc3C2)c[nH]1` [Compound 77] the pIC50 was less than 5.30.
In the case of `COc1cnc(CN2CCOc3c(Cl)cc(-n4ccc5cc(F)ccc54)cc3C2)cn1` [Compound 172], the pIC50 was 5.30 to 6.00.
`CNC(=O)[C@H]1CC[C@H](CN2CCOc3c(Cl)cc(-n4ccc5cc(F)ccc54)cc3C2)CC1` [Compound 127, trans-4-{[9-chloro-7-(5-fluoroindol-1-yl)-3,5-dihydro-2H-1,4-benzoxazepin-4-yl]methyl}-N-methylcyclohexane-1-carboxamide] was tested, and the pIC50 was 6.00 to 6.30.
In the case of `CNc1ncc(CN2CCOc3c(Cl)cc(-n4ccc5cc(F)ccc54)cc3C2)cn1` [Compound 147], the pIC50 was 6.30 to 7.00.
For `COc1ncc(CN2CCOc3c(Cl)cc(-n4ccc5cc(SC)ccc54)cc3C2)cn1` [Compound 21], the pIC50 was less than 5.30.
Compound `Fc1ccc2c(ccn2-c2cc(Cl)c3c(c2)CN(Cc2ccnc(NC4COC4)c2)CCO3)c1` [Compound 182, 4-{[9-chloro-7-(5-fluoroindol-1-yl)-3,5-dihydro-2H-1,4-benzoxazepin-4-yl]methyl}-N-(oxetan-3-yl)pyridin-2-amine] has a pIC50 of 5.30 to 6.00.
Compound `NC(=O)[C@H]1CC[C@H](CN2CCOc3c(Cl)cc(-n4ccc5cc(F)ccc54)cc3C2)CC1` [Compound 126] has a pIC50 of 6.00 to 6.30.
With `Fc1ccc2c(ccn2-c2cc(Cl)c3c(c2)CN(Cc2nnc[nH]2)CCO3)c1` [Compound 109, 9-chloro-7-(5-fluoroindol-1-yl)-4-(4H-1,2,4-triazol-3-ylmethyl)-3,5-dihydro-2H-1,4-benzoxazepine] the pIC50 was less than 5.30.
`COC(=O)[C@H]1CC[C@H](CN2CCOc3c(Cl)cc(-n4ccc5cc(F)ccc54)cc3C2)CC1` [Compound 133] showed a pIC50 of less than 5.30.
Compound `Fc1ccc2c(ccn2-c2cc(Cl)c3c(c2)CN(Cc2ccsn2)CCO3)c1` [Compound 97] has a pIC50 of less than 5.30.
`Fc1ccc2c(ccn2-c2cc(Cl)c3c(c2)CN(Cc2nncs2)CCO3)c1` [Compound 112] gave a pIC50 of 5.30 to 6.00.
`COc1ncc(CN2CCOc3c(Cl)cc(-n4ccc5ncccc54)cc3C2)cn1` [Compound 37] gave a pIC50 of 6.00 to 6.30.
In the case of `Fc1ccc2c(ccn2-c2cc(Cl)c3c(c2)CN(Cc2cc[nH]n2)CCO3)c1` [Compound 101], the pIC50 was less than 5.30.
`NCc1cc(CN2CCOc3c(Cl)cc(-n4ccc5cc(F)ccc54)cc3C2)ccn1` [Compound 184, 1-(4-{[9-chloro-7-(5-fluoroindol-1-yl)-3,5-dihydro-2H-1,4-benzoxazepin-4-yl]methyl}pyridin-2-yl)methanamine] was tested, and the pIC50 was 5.30 to 6.00.
`C[C@@H]1COc2c(Cl)cc(-n3ccc4cc(F)ccc43)cc2CN1Cc1cc[nH]c(=O)n1` [Compound 12] showed a pIC50 of 6.00 to 6.30.
For `COc1nccc(CN2CCOc3c(Cl)cc(-n4ccc5cc(F)ccc54)cc3C2)n1` [Compound 161], the pIC50 was 6.00 to 6.30.
`O=c1ncc(CN2CCOc3c(Cl)cc(-n4ccc5c(F)c(Cl)ccc54)cc3C2)c[nH]1` [Compound 65] was tested, and the pIC50 was 6.00 to 6.30.
`COc1ncc(CN2CCOc3c(Cl)cc(-n4ccc5cc(C#N)ccc54)cc3C2)cn1` [Compound 16] showed a pIC50 of 6.00 to 6.30.
Compound `O=c1ncc(CN2CCOc3c(Cl)cc(-n4ccc5cc(F)ccc54)cc3C2)c(O)[nH]1` [Compound 157, 5-{[9-chloro-7-(5-fluoroindol-1-yl)-3,5-dihydro-2H-1,4-benzoxazepin-4-yl]methyl}-4-hydroxy-3H-pyrimidin-2-one] has a pIC50 of 5.30 to 6.00.
`CC1c2cc(-n3ccc4cc(F)ccc43)cc(Cl)c2OCCN1Cc1cc[nH]c(=O)c1` (stereo not shown) [Compound 235] gave a pIC50 of 6.00 to 6.30.
`C[C@@H]1c2cc(-n3ccc4cc(F)ccc43)cc(Cl)c2OCCN1Cc1cc[nH]c(=O)c1` (single isomer, unassigned) [Compound 236] showed a pIC50 of less than 5.30.
`O=c1cc(CN2Cc3cc(-n4ccc5cc(F)ccc54)cc(Cl)c3OCC2C2CC2)cc[nH]1` (stereo not shown) [Compound 231] showed a pIC50 of less than 5.30.
`COc1cc(CN2CCOc3c(Cl)cc(-n4ccc5cc(F)ccc54)cc32)ccn1` [Compound 224] gave a pIC50 of less than 5.30.
Work on `NC(=O)c1ncc(CN2CCOc3c(Cl)cc(-n4ccc5cc(F)ccc54)cc3C2)cn1` [Compound 143, 5-{[9-chloro-7-(5-fluoroindol-1-yl)-3,5-dihydro-2H-1,4-benzoxazepin-4-yl]methyl}pyrimidine-2-carboxamide] yielded a pIC50 of 5.30 to 6.00.
Compound `Fc1ccc2c(ccn2-c2cc(Cl)c3c(c2)CN(Cc2cccc(C(F)F)c2)CCO3)c1` [Compound 123] has a pIC50 of less than 5.30.
Compound `[2H]C1([2H])c2cc(-n3ccc4cc(F)ccc43)cc(Cl)c2OCCN1Cc1cc[nH]c(=O)c1` [Compound 226] has a pIC50 of 6.30 to 7.00.
Compound `COc1ncc(CN2CCOc3c(Cl)cc(-n4ccc5cc(C)ccc54)cc3C2)cn1` [Compound 14] has a pIC50 of 6.00 to 6.30.
`Fc1ccc2c(ccn2-c2cc(Cl)c3c(c2)CN(Cc2ccc(C(F)F)cc2)CCO3)c1` [Compound 124] showed a pIC50 of less than 5.30.
With `Fc1ccc2c(ccn2-c2cc(Cl)c3c(c2)CN(Cc2cnsc2)CCO3)c1` [Compound 96] the pIC50 was 5.30 to 6.00.
With `COc1ncc(CN2CCOc3c(Cl)cc(-n4ccc5cc(Br)ccc54)cc3C2)cn1` [Compound 22] the pIC50 was less than 5.30.
`CN(C)c1ccc2c(ccn2-c2cc(Cl)c3c(c2)CN(Cc2cnc(=O)[nH]c2)CCO3)c1` [Compound 61] showed a pIC50 of less than 5.30.
With `CC(C)(C)OC(=O)Nc1cnc(CN2CCOc3c(Cl)cc(-n4ccc5cc(F)ccc54)cc3C2)cn1` [Compound 171] the pIC50 was less than 5.30.
For `[2H]C1([2H])Oc2c(Cl)cc(-n3ccc4cc(F)ccc43)cc2CN(Cc2cc[nH]c(=O)c2)C1([2H])[2H]` [Compound 227], the pIC50 was greater than 7.00.
`Fc1ccc2c(ccn2-c2cc(Cl)c3c(c2)CN(Cc2cnc(NC4COC4)nc2)CCO3)c1` [Compound 149, 5-{[9-chloro-7-(5-fluoroindol-1-yl)-3,5-dihydro-2H-1,4-benzoxazepin-4-yl]methyl}-N-(oxetan-3-yl)pyrimidin-2-amine] gave a pIC50 of 6.30 to 7.00.
Compound `Fc1ccc2c(ccn2-c2cc(Cl)c3c(c2)CN(Cc2cc[nH]c2)CCO3)c1` [Compound 86] has a pIC50 of less than 5.30.
Work on `CN(C)c1ncc(CN2CCOc3c(Cl)cc(-n4ccc5cc(F)ccc54)cc3C2)cn1` [Compound 148] yielded a pIC50 of 6.00 to 6.30.
With `NC(=O)[C@H]1CC[C@@H](CN2CCOc3c(Cl)cc(-n4ccc5cc(F)ccc54)cc3C2)CC1` [Compound 125] the pIC50 was 5.30 to 6.00.
With `O=c1ncc(CN2CCOc3c(Cl)cc(-c4cccc5nccn45)cc3C2)c[nH]1` [Compound 74] the pIC50 was 5.30 to 6.00.
`CNC(=O)[C@H]1CC[C@@H](CN2CCOc3c(Cl)cc(-n4ccc5cc(F)ccc54)cc3C2)CC1` [Compound 128, cis-4-{[9-chloro-7-(5-fluoroindol-1-yl)-3,5-dihydro-2H-1,4-benzoxazepin-4-yl]methyl}-N-methylcyclohexane-1-carboxamide] was tested, and the pIC50 was 5.30 to 6.00.
With `OCc1ncc(CN2CCOc3c(Cl)cc(-n4ccc5cc(F)ccc54)cc3C2)cn1` [Compound 141, (5-{[9-chloro-7-(5-fluoroindol-1-yl)-3,5-dihydro-2H-1,4-benzoxazepin-4-yl]methyl}pyrimidin-2-yl)methanol] the pIC50 was 6.00 to 6.30.
Compound `O=c1ncc(CN2CCOc3c(Cl)cc(-c4coc5ccccc45)cc3C2)c[nH]1` [Compound 84] has a pIC50 of 6.30 to 7.00.
Work on `Fc1ccc2c(ccn2-c2cc(Cl)c3c(c2)CN(Cc2cnco2)CCO3)c1` [Compound 93, 9-chloro-7-(5-fluoro-1H-indol-1-yl)-4-(oxazol-5-ylmethyl)-2,3,4,5-tetrahydrobenzo[f][1,4]oxazepine] yielded a pIC50 of 6.00 to 6.30.
`COc1ncc(CN2CCOc3c(Cl)cc(N4Cc5ccccc5C4=O)cc3C2)cn1` [Compound 48] showed a pIC50 of less than 5.30.
In the case of `Fc1ccc2c(ccn2-c2cc(Cl)c3c(c2)CN(Cc2cccnn2)CCO3)c1` [Compound 166], the pIC50 was 6.00 to 6.30.
Work on `COc1ncc(CN2CCOc3c(Cl)cc(N4CCS(=O)(=O)c5ccccc54)cc3C2)cn1` [Compound 53] yielded a pIC50 of less than 5.30.
Compound `O=c1ccc(CN2CCOc3c(Cl)cc(-n4ccc5cc(F)ccc54)cc3C2)c[nH]1` [Compound 175] has a pIC50 of 6.30 to 7.00.
For `COc1ncc(CN2CCOc3c(Cl)cc(-c4coc5ccccc45)cc3C2)cn1` [Compound 56], the pIC50 was 5.30 to 6.00.
Compound `Fc1ccc2c(ccn2-c2cc(Cl)c3c(c2)CN(Cc2cscn2)CCO3)c1` [Compound 100, 9-chloro-7-(5-fluoroindol-1-yl)-4-(1,3-thiazol-4-ylmethyl)-3,5-dihydro-2H-1,4-benzoxazepine] has a pIC50 of less than 5.30.
Compound `Fc1ccc2c(ccn2-c2cc(Cl)c3c(c2)CN(Cc2cnc(Cl)cn2)CCO3)c1` [Compound 173] has a pIC50 of 5.30 to 6.00.
`COC(=O)[C@H]1CC[C@@H](CN2CCOc3c(Cl)cc(-n4ccc5cc(F)ccc54)cc3C2)CC1` [Compound 134] was tested, and the pIC50 was less than 5.30.
`OCc1cc(CN2CCOc3c(Cl)cc(-n4ccc5cc(F)ccc54)cc3C2)ccn1` [Compound 183] gave a pIC50 of 6.30 to 7.00.
`Oc1ncc(CN2CCOc3c(Cl)cc(-n4ccc5cc(F)ccc54)cc3C2)c(Cl)n1` [Compound 158, 4-chloro-5-{[9-chloro-7-(5-fluoroindol-1-yl)-3,5-dihydro-2H-1,4-benzoxazepin-4-yl]methyl}-3H-pyrimidin-2-one] gave a pIC50 of 5.30 to 6.00.
With `Nc1cc(CN2CCOc3c(Cl)cc(-n4ccc5cc(F)ccc54)cc3C2)ccn1` [Compound 179, 4-{[9-chloro-7-(5-fluoroindol-1-yl)-3,5-dihydro-2H-1,4-benzoxazepin-4-yl]methyl}pyridin-2-amine] the pIC50 was 5.30 to 6.00.
Compound `Fc1ccc2c(ccn2-c2cc(Cl)c3c(c2)CN(Cc2nsc(Cl)n2)CCO3)c1` [Compound 115, 9-chloro-4-[(5-chloro-1,2,4-thiadiazol-3-yl)methyl]-7-(5-fluoroindol-1-yl)-3,5-dihydro-2H-1,4-benzoxazepine] has a pIC50 of less than 5.30.
`CC(C)(C)OC(=O)n1cc(CN2CCOc3c(Cl)cc(-n4ccc5cc(F)ccc54)cc3C2)cn1` [Compound 104] was tested, and the pIC50 was less than 5.30.
